From patent US9371295B2, “Compounds for use in the treatment of disorders that are ameliorated by inhibition of HDAC” (IRBM—Science Park S.p.A., priority 2012, dated 2016)

What was measured:
human γ-globin gene = conditions: transgenic mice; Cao, H Exp. Hematol. 2005; cited from earlier work
[1] = Mouse in vivo pharmacokinetics, oral dose; conditions: plasma
Experimental: Compounds of the invention were evaluated in in vitro and in vivo pharmacokinetic studies.

[2] = Rat PK studies, oral dose; type: in vivo, Sprague-Dawley rats; conditions: male, Sprague-Dawley, plasma, po 10 mg/kg
Experimental: Rats Male Sprague-Dawley rats (250-350 g) were used for the absorption disposition studies. In each rat an indwelling cannula was implanted in the right jugular vein for blood sampling. The surgery was performed under light anaesthesia (Ketamine-Xilazine (85 mg/kg and 2.5 mg/kg respectively i.m.) one day prior the experiment). During the kinetic study, all animals were housed individually in plastic metabolism cages, and were unrestrained throughout the experiment. Compounds (6 mg/mL) were dissolved in 20% DMSO/60% PEG400/20% water for intravenous administration, and dissolved or suspended in 1% methylcellulose for oral administration (2 mg/ml). After an overnight fast, the rats received an i.v. (via caudal vein) or an oral dose of the compound. Blood samples were collected at different times point after dosing. Plasma was separated immediately after blood sampling by centrifugation, and the plasma samples were kept frozen (−20° C.) until assayed by LC/MS/MS.
Analytical procedures: Plasma samples were extracted using Liquid Handling Robot MultiProbe Packard by protein precipitation with acetonitrile. Then the samples were centrifuged (3000 rpm×15 min at 4° C.) and the supernatant transferred and dried under nitrogen. The samples were reconstituted in water/acetonitrile 90/10 and then injected directly into an HPLC column. Sample analyses were performed using a an API 3000 or/and API 2000 or/and API 4000 Mass Spectrometer interfaced via the Turbo Ion Spray (ESI)/APCI to an LC system consisting of an HTS PAL CTC autosampler and an Agilen HP 1100 Binary Pump. The results are calculated using Analyst Software linear regression with 1/x*x weighting. The Assay Precision was calculated for the Quality Controls by Watson Lims database.
Pharmacokinetic Analysis: The plasma clearance (CLp) of the compounds were calculated (using Watson PK program) as the dose divided by the area under the plasma concentration-time curve from time zero to infinity (AUC0-∞). The apparent half-life was estimated from the slope of the terminal phase of the log plasma concentration-time data. The volume of distribution (Vdss) was determined using the following noncompartmental method: Vdss=(Dose IV×AUMC)/(AUC0-∞)2
where AUMC is the total area under the first moment of the drug concentration time curve from time zero to infinity. Bioavailability was estimated as the AUC0-∞ ratio following oral and intravenous administration, normalized for differences in dose.

[3] = test system: human γ-globin promoter (EGFP reporter) in K562 cells; test: HbF activation assay on K562 (EGFP/RFP reporter model system for screening of inducers of fetal hemoglobin); type: cell-based; conditions: 60 hours
In short: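 K562 cells stably carrying EGFP under the human γ-globin promoter and far-red FP under the β-globin promoter, with the LCR, were seeded at 1000 cells/well. Cells were exposed to compounds (0.25% DMSO final) for 60 h at 37 °C. Fluorescence was read by plate cytometry, normalized to Hoechst nuclei count, which also indicated proliferation or death.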

HDAC1 = target: T1, HDAC1 (Homo sapiens, UniProt Q13547); test: HDAC1 assay (Fluor-de-Lys fluorescent deacetylase assay); type: biochemical; conditions: read-out: hHDAC IC50
T1 construct: made in house
T1 sequence (Q13547 whole entry): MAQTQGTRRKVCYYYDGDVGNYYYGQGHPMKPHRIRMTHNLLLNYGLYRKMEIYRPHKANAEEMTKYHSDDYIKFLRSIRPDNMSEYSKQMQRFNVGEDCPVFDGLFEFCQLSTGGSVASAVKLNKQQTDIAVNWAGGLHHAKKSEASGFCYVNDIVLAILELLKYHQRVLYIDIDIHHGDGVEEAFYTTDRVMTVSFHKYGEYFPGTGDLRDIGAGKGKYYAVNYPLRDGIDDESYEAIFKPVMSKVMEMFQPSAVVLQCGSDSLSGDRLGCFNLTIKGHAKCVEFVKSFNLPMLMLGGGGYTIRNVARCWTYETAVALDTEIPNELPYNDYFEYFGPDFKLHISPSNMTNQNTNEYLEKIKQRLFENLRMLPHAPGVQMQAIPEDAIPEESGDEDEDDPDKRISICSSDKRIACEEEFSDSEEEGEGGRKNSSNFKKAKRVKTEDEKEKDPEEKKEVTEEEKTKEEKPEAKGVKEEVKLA
In short: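 Serially diluted compounds were pre-incubated with purified FLAG-tagged HDAC1 (1-2 nM final; from transfected HeLa cells) or HeLa nuclear extract, then given the Fluor-de-Lys acetyl-lysine substrate/developer; deacetylation read as fluorescence. Reactions were stopped with TSA (3 uM final).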

HDAC in Hela cells = test: HDAC Hela Cell Based assay
[4] = Intrinsic clearance in pooled human liver microsomes; type: in vitro ADME; conditions: pH 7.4
[5] = Intrinsic clearance in pooled mouse liver microsomes; type: in vitro ADME; conditions: pH 7.4
[6] = Intrinsic clearance in pooled rat liver microsomes; type: in vitro ADME; conditions: pH 7.4
Experimental: Assays were performed in presence of 0.5 mg/ml of microsomal protein, with a NADPH-generating system (1 mM NADP, 2.5 mM glucose 6-phosphate and 2 U/ml glucose 6-phosphate dehydrogenase) in 100 mM potassium phosphate buffer containing 3.3 mM MgCl2 (pH 7.4). Tested compounds were stored in 10 mM DMSO solution and incubated at 1 μM final concentration (final DMSO concentration in incubation less than 0.1%). Microsomes and substrates were preincubated at 37° C. for 5 min and then the enzymatic reactions were initiated by the addition of cofactors and incubated at 37° C. for up to 90 min. Incubations were terminated by the addition of an equivalent volume of cold acetonitrile containing I.S. Control incubations, where the substrate was incubated in the same buffer system containing pRLM without the NADPH-generating system, were also run.

Compound	AUC ([1]; po 10 mg/kg)	Cmax ([1]; po 10 mg/kg)	EC50 [3]	IC50 (HDAC1)	IC50 (HDAC in Hela cells)	microsomal CLint at 1 μM [4]	microsomal CLint at 1 μM [5]	microsomal CLint at 1 μM [6]	AUC ([1]; po 5 mg/kg)	Cmax ([1]; po 5 mg/kg)	increase of human γ/murine α-globin mRNA ratios (human γ-globin gene)	AUC [2]	Cmax [2]
CCC(=O)NO [propionyl hydroxamate]											71%		
CCCC(=O)NO [butyryl hydroxamate]											33.9%		
CCC(=O)CCCCC[C@H](NC(=O)C12CCN(CC1)CC2)c1ncc(-c2cc3ccccc3nc2OC)o1 [Compound 41, (S)-N-(1-(5-(2-methoxyquinolin-3-yl)oxazol-2-yl)-7-oxononyl)quinuclidine-4-carboxamide]			> 1000 nM	< 100 nM	< 100 nM							10.1 µM·h	470 nM

Now from value to compound, other results behind:

AUC ([1]; po 10 mg/kg)	Cmax ([1]; po 10 mg/kg)	EC50 [3]	IC50 (HDAC1)	IC50 (HDAC in Hela cells)	microsomal CLint at 1 μM [4]	microsomal CLint at 1 μM [5]	microsomal CLint at 1 μM [6]	AUC ([1]; po 5 mg/kg)	Cmax ([1]; po 5 mg/kg)	Compound	increase of human γ/murine α-globin mRNA ratios (human γ-globin gene)	AUC [2]	Cmax [2]
1.75 µM·h	630 nM	> 1000 nM	< 100 nM	100 to 1000 nM	60 µL/min/mg	19 µL/min/mg	30 µL/min/mg			CCC(=O)CCCCC[C@H](NC(=O)C1CN(C)C1)c1nnc(-c2cc3ccccc3nc2OC)o1 [Compound 52, (S)-N-(1-(5-(2-methoxyquinolin-3-yl)-1,3,4-oxadiazol-2-yl)-7-oxononyl)-1-methylazetidine-3-carboxamide]		5.91 µM·h	580 nM
		100 to 1000 nM	< 100 nM	< 100 nM	11 µL/min/mg	11 µL/min/mg	17 µL/min/mg			CCC(=O)CCCCC[C@H](NC(=O)C1CN(C)C1)c1ncc(-c2cc3ccccc3[nH]c2=O)o1 [Compound 44, (S)-1-methyl-N-(7-oxo-1-(5-(2-oxo-1,2-dihydroquinolin-3-yl)oxazol-2-yl)nonyl)azetidine-3-carboxamide]			
		> 1000 nM	< 100 nM	100 to 1000 nM	3 µL/min/mg	15 µL/min/mg	21 µL/min/mg	5.93 µM·h	670 nM	CCC(=O)CCCCC[C@@H](NC(=O)C1CN(C)C1)c1ncc(-c2cc3ccccc3nc2OC)o1 [Compound 42, (R)-N-(1-(5-(2-methoxyquinolin-3-yl)oxazol-2-yl)-7-oxononyl)-1-methylazetidine-3-carboxamide]			
